The values that follow come from article PMC12514245, “Impaired migration and lung invasion of human melanoma by a novel small molecule targeting the transmembrane domain of death receptor p75^NTR” (EMBO Molecular Medicine, 2025).

The nature of series [1]: Plasma pharmacokinetics in mice. The note with it: for Cmax: read-out: C0/Cmax; for Vd: read-out: Vss. It counts as in vivo, C57BL/6 mice.
The format of series [2] is in vivo. The settings on record: oral gavage 200 mg/kg daily (5 days on, 2 days off), 3 weeks; female SCID.
The mark [3] stands for this setting: C57BL/6, mouse, IV 3 mg/kg, female, plasma.
Where [4] appears, read: C57BL/6, mouse, IV 3 mg/kg, male, plasma.
The mark [5] stands for this setting: C57BL/6, mouse, PO 10 mg/kg, female, plasma.
Setting [6] is: C57BL/6, mouse, PO 10 mg/kg, male, plasma.

SMILES strings stand for the structures. Entries after “also recorded” stand apart in the source; their conditions may differ. Where two headings read alike, the source gives them in different places.

By AUC(0-t) is commonly meant exposure summed from dosing to a finite time, without extrapolation to infinity. As usually defined, the Tmax is the time at which the peak concentration occurs. A word on the bioavailability: it is the share of a dose that reaches the circulation, judged against a reference dose that is usually intravenous. Read a high bioavailability as good availability. On to `Cc1cccc(-c2cncc(Nc3ccc(Br)c(Cl)c3Cl)n2)c1C` [Np75-4A22], for which the AUC(0-t) came out at 1670 ng·h/mL in series [1] (setting [3]), 2070 ng·h/mL in series [1] (setting [4]), 2680 ng·h/mL in series [1] (setting [5]) and 4730 ng·h/mL in series [1] (setting [6]). Also, the Cmax in series [1] (C57BL/6, mouse, IV 3 mg/kg, female, plasma, back extrapolated) was 3400 ng/mL; in series [1] (C57BL/6, mouse, IV 3 mg/kg, male, plasma, back extrapolated), 4710 ng/mL; in series [1] (setting [5]), 1030 ng/mL; in series [1] (setting [6]) it was 1310 ng/mL. The clearance was 29.5 mL/min/kg in series [1] (C57BL/6, mouse, IV 3 mg/kg, female, plasma, read-out: CL); 23.9 mL/min/kg in series [1] (C57BL/6, mouse, IV 3 mg/kg, male, plasma, read-out: CL); “low clearance” in series [1] (i.v. 3 mg/kg, male and female). Besides, the half-life in series [1] (C57BL/6, mouse, IV 3 mg/kg, female, plasma, read-out: T1/2 (converted)) was 8.64 h; in series [1] (C57BL/6, mouse, IV 3 mg/kg, male, plasma, read-out: T1/2 (converted)), 7.45 h; in series [1] (i.v. 3 mg/kg, male and female), “long half-life”. In addition, the Vd was 3.23 L/kg in series [1] (setting [3]) and 2.09 L/kg in series [1] (setting [4]). Besides, the Tmax in series [1] (setting [5]) and in series [1] (setting [6]) was 0.5 h in each case. The bioavailability in series [1] (setting [5]) turned out to be 48%; in series [1] (setting [6]), 69%. Moreover, in series [1] (oral 10 mg/kg, male and female), the absorption result was “rapid absorption”. Also, the oral bioavailability result in series [1] (oral 10 mg/kg, male and female, 10 mg/kg) is “good oral bioavailability; also recorded: high oral bioavailability”. In addition, in series [2], the “mortality, clinical signs and gross histological pathology” value was “No mortality or adverse clinical signs”.
